Experimental data published in US7294615B1, “Compounds that associate on the intermolecular level and aggregate bodies that contain them” (priority 1999, dated 2007).
Where two headings read alike, the source gives them in different places.

Columns and labels:
[1] = system: Influenza virus A/Duck/Alberta/60/67 H12N5; type: binding
[2] = system: influenza virus strain A/NIB/H1N1/89M; test: FBI test, inhibition of viral adhesion (Table 9); conditions: 6'SLN as reference compound (=1)
PK15 cells = conditions: read-out: Concentration at which 50% inhibition of cytotoxicity was achieved, human serum, 10% rabbit serum complement
[3] = system: Influenza virus A/NIB/44/90M H3N2; test: Fetuin binding inhibition (FBI) test, inhibition of viral cell adhesion; conditions: for Relative activity: FBI test, Neu5AcαBn as reference compound (=1), specific activity per Neu5Ac group; for Kd: inhibitor virus complex
[4] = Gel permeation chromatography of aggregates; type: physicochemical; conditions: for Aggregate, %: determined by gel permeation chromatography
Source text: (§1) The formation of aggregates in solution can be observed by light scattering experiments or by gel permeation chromatography.
The compound of the general formula (I) Neu5Ac-Gab-ACm-Ad-Gly5-NHCH2-]4C (m=1-3) associates at room temperature in aqueous and organic solvents.
Silica gel 60 (40-63 μm) (Merck) was used for column chromatography. Sephadex of types LH-20, G-10, G-25 (Pharmacia, Sweden) and TSK-4000 (HPLC) were used for gel permeation chromatography.

[5] = Light scattering, particle size of aggregates; type: physicochemical
Method: as §1
The light scattering experiments were carried out using the following apparatus: Coultronics Coulter N4-MD (He-Ne laser, λ=632.8 nm, measurement of the scattering at an angle of 62.5° to the incident light beam), Spectra-Physics 164 (argon laser, λ=528.7 nm and λ=611.5 nm, measurement of the scattering at an angle of 90° to the incident light beam).
The investigation into the light scattering of a 50 mM solution of compound (22a) in water was carried out using a Spectra-Physics 164 argon laser (plasma lines λ=528.7 and 611.5 nm), the scattering was measured at an angle of 90° to the incident light beam. The particle size thereby determined was <2.5 nm. 50 μl of 0.8M NaHCO3 solution were added to the resulting solution. The light scattering was measured, as described above, the average particle size thereby determined was 200-400 nm.
50 μl of a 0.8M HCl was added to the resulting solution, and the sample was investigated by means of light scattering, as described above. The particle size thereby determined was <2.5 nm.

Q: With `CC(=O)N[C@H]1[C@H]([C@H](O)[C@H](O)CO)O[C@@](O[C@H]2[C@@H](O)[C@@H](CO)O[C@@H](O[C@H]3[C@H](O)[C@@H](O)C(O)O[C@@H]3CO)[C@@H]2O)(C(=O)O)C[C@@H]1O` (some centres unmarked) [3'SL, reference compound] as the molecule, how does the Relative activity ([1]; FBI test, 3'SL as reference compound (=1), specific activity per 3'SL group) read?
A: 1

Q: What about the Kd ([1]; fetuin binding assay, inhibitor virus complex) of the same molecule?
A: 20 µM

Q: Which Relative activity [2] does the source give for `CC(=O)N[C@H]1[C@H]([C@H](O)[C@H](O)CO)O[C@](OC[C@H]2O[C@@H](O[C@H]3[C@H](O)[C@@H](NC(C)=O)C(O)O[C@@H]3CO)[C@H](O)[C@@H](O)[C@H]2O)(C(=O)O)C[C@@H]1O` (some centres unmarked) [6'SLN, reference compound] here?
A: 1

Q: For `O=C(CCCCCNC(=O)CCCCCNC(=O)CCCCC(=O)NCCCO[C@@H]1O[C@H](CO)[C@H](O)[C@H](O[C@H]2O[C@H](CO)[C@H](O)[C@H](O)[C@H]2O)[C@H]1O)NCCCCCC(=O)NCC(=O)NCC(=O)NCC(=O)NCC(=O)NCC(=O)NCC(CNC(=O)CNC(=O)CNC(=O)CNC(=O)CNC(=O)CNC(=O)CCCCCNC(=O)CCCCCNC(=O)CCCCCNC(=O)CCCCC(=O)NCCCO[C@@H]1O[C@H](CO)[C@H](O)[C@H](O[C@H]2O[C@H](CO)[C@H](O)[C@H](O)[C@H]2O)[C@H]1O)(CNC(=O)CNC(=O)CNC(=O)CNC(=O)CNC(=O)CNC(=O)CCCCCNC(=O)CCCCCNC(=O)CCCCCNC(=O)CCCCC(=O)NCCCO[C@@H]1O[C@H](CO)[C@H](O)[C@H](O[C@H]2O[C@H](CO)[C@H](O)[C@H](O)[C@H]2O)[C@H]1O)CNC(=O)CNC(=O)CNC(=O)CNC(=O)CNC(=O)CNC(=O)CCCCCNC(=O)CCCCCNC(=O)CCCCCNC(=O)CCCCC(=O)NCCCO[C@@H]1O[C@H](CO)[C@H](O)[C@H](O[C@H]2O[C@H](CO)[C@H](O)[C@H](O)[C@H]2O)[C@H]1O` [Compound 49, {Galα1-3Galβ1-O(CH2)3NH—CO(CH2)4CO—(NH(CH2)5CO)3—(NHCH2CO)5—NHCH2—]4C}x], which IC50 (PK15 cells) is on record?
A: 0.5 µM

Q: With `OC[C@H]1O[C@H](O[C@H]2[C@@H](O)[C@@H](CO)OC(O)[C@@H]2O)[C@H](O)[C@@H](O)[C@H]1O` (some centres unmarked) [Galα1-3Gal, reference compound] as the molecule, how does the IC50 (PK15 cells) read?
A: 200 µM

Q: Which results are given for `CC(=O)N[C@H]1[C@H]([C@H](O)[C@H](O)CO)O[C@@](OCc2ccccc2)(C(=O)O)C[C@@H]1O` [Neu5Acα-OBn, reference compound]?
A: Relative activity [3]: 1; Kd ([3]; fetuin binding assay): 100 µM

Q: For `CC(=O)N[C@@H]1[C@@H](O)[C@H](O[C@@H]2O[C@H](CO[C@]3(C(=O)O)C[C@H](O)[C@@H](NC(C)=O)[C@H]([C@H](O)[C@H](O)CO)O3)[C@H](O)[C@H](O)[C@H]2O)[C@@H](CO)O[C@H]1NC(=O)CNC(=O)CCCCC(=O)NCC(=O)NCC(=O)NCC(=O)NCC(CNC(=O)CNC(=O)CNC(=O)CNC(=O)CCCCC(=O)NCC(=O)N[C@@H]1O[C@H](CO)[C@@H](O[C@@H]2O[C@H](CO[C@]3(C(=O)O)C[C@H](O)[C@@H](NC(C)=O)[C@H]([C@H](O)[C@H](O)CO)O3)[C@H](O)[C@H](O)[C@H]2O)[C@H](O)[C@H]1NC(C)=O)(CNC(=O)CNC(=O)CNC(=O)CNC(=O)CCCCC(=O)NCC(=O)N[C@@H]1O[C@H](CO)[C@@H](O[C@@H]2O[C@H](CO[C@]3(C(=O)O)C[C@H](O)[C@@H](NC(C)=O)[C@H]([C@H](O)[C@H](O)CO)O3)[C@H](O)[C@H](O)[C@H]2O)[C@H](O)[C@H]1NC(C)=O)CNC(=O)CNC(=O)CNC(=O)CNC(=O)CCCCC(=O)NCC(=O)N[C@@H]1O[C@H](CO)[C@@H](O[C@@H]2O[C@H](CO[C@]3(C(=O)O)C[C@H](O)[C@@H](NC(C)=O)[C@H]([C@H](O)[C@H](O)CO)O3)[C@H](O)[C@H](O)[C@H]2O)[C@H](O)[C@H]1NC(C)=O` [{Neu5Acα2-6Galβ1-4GlcNAcβ1-NHCOCH2NH—CO(CH2)4CO—(NHCH2CO)3—NHCH2—}4C, reference compound], which “Gel permeation HPLC peaks” value ([4]; TSK-4000 column, 0.2M NaCl) is on record?
A: only one peak is observed, which corresponds to the molecular weight of the monomer

Q: For “[6′-SLN-Ap-Ad-AC2-Gly5-NHCH2]4C [Compound 54]”, which Relative activity [2] is on record?
A: 1000

Q: For “[6′SLN-Ap-Ad-Gly7-NHCH2]4C [Compound 53]”, which Relative activity [2] is on record?
A: 100

Q: With [HCl.H-Gly7-NHCH2-]4C [Compound 22a] as the molecule, how does the Particle size ([5]; 50 mM solution in water) read?
A: < 2.5 nm

Q: And the Association state ([5]; after addition of 0.8M NaHCO3 solution)?
A: self-association of the compound is achieved

Q: And the Average particle size ([5]; after addition of 50 μl 0.8M NaHCO3 solution)?
A: 200-400 nm

Q: What about the Particle size ([5]; after subsequent addition of 50 μl 0.8M HCl) of the same molecule?
A: < 2.5 nm

Q: What about the Association state ([5]; water at 20° C.) of the same molecule?
A: non-associated form

Q: With “[Neu5Ac-Gab-AC2-Ad-Gly5-NHCH2-]4C [Compound 46]” as the molecule, how does the Relative activity [3] read?
A: 330

Q: And the Kd ([3]; fetuin binding assay)?
A: 0.3 µM

Q: What about the “Aggregate, %” value [4] of the same molecule?
A: 92%

Q: With “[Neu5Ac-Gab-AC3-Ad-Gly5-NHCH2-]4C [Compound 47]” as the molecule, how does the Relative activity [3] read?
A: 1000

Q: What about the Kd ([3]; fetuin binding assay) of the same molecule?
A: 0.1 µM

Q: What about the “Aggregate, %” value [4] of the same molecule?
A: 96%

Q: With “[Neu5Ac-Gab-AC-Ad-Gly5-NHCH2-]4C [Compound 45]” as the molecule, how does the Relative activity [3] read?
A: 15

Q: And the Kd ([3]; fetuin binding assay)?
A: 7 µM

Q: And the “Aggregate, %” value [4]?
A: 12%

Q: What does the source list for “[Neu5Ac-Gab-Ad-AC2-Gly5-NHCH2-]4C [Compound 43]”?
A: Relative activity [3]: 1000; Kd ([3]; fetuin binding assay): 0.1 µM; Aggregate, % [4]: 6%

Q: Which Relative activity [3] does the source give for “[Neu5Acα-OCH2(p-C6H4)NHCOCH2NH—CO(CH2)4CO—(NH(CH2)5CO)3—(NHCH2CO)5—NHCH2—]4C [Compound 44]” here?
A: 2500

Q: What about the “Increase in specific activity in comparison with free ligand Neu5AcαBn” value ([3]; fetuin binding assay) of the same molecule?
A: more than three orders of magnitude

Q: And the Kd ([3]; fetuin binding assay)?
A: 0.04 µM

Q: And the “Aggregate, %” value [4]?
A: 54%

Q: Which Kd [1] does the source give for “{[Neu5Acα2-3Galβ1-4Glcβ1-NHCOCH2NH—CO(CH2)4CO—(NHCH2CO)5—NHCH2—]4C}x [Compound 50]” here?
A: 1 µM

Q: What about the Relative activity [1] of the same molecule?
A: 20

Q: What does the source list for “{[Neu5Acα2-3Galβ1-4Glcβ1-NHCOCH2NH—CO(CH2)4CO—(NHCH2CO)7—NHCH2—]4C}x [Compound 51]”?
A: Kd [1]: 0.1 µM; Relative activity [1]: 200

Q: With “{[Neu5Acα-OCH2(p-C6H4)NHCOCH2NH—CO(CH2)4CO—(NHCH2CO)7—NHCH2—]4C} [Compound 48]” as the molecule, how does the Kd ([3]; fetuin binding assay) read?
A: 0.1 µM

Q: What about the Relative activity [2] of the same molecule?
A: <0.2

Q: What about the “Particle size of aggregates” value ([5]; water, 60° C.) of the same molecule?
A: up to 8000 nm
